Activity calls are given as the source filed them. The calls are words filed in the database; no cut-off is given here. Positions of bridges follow the written chain, without caps; N, C: chain ends. Residues, ends and D or L forms follow the SMILES beside them.
Legend:
[1] = Displacement of 5-TAMRA-SRDLFSVTFDLGFCSPDSDD-NH2 from recombinant N-terminal 6His/SUMO-tagged RMI1/2 (unknown origin) extracted from Escherichia coli BL21 (DE3) cells incubated for 1 hrs by competitive fluorescence polarization assay; set-up: species or system Homo sapiens; settings: for Activity: Homo sapiens
[2] = Binding affinity to N-terminal 6His/Avi-tagged biotinylated RMI1/2 (unknown origin) extracted from Escherichia coli BL21 (DE3) cells assessed as dissociation constant by SPR analysis; set-up: species or system Homo sapiens
U2OS = experiment: Disruption of FANCM-RMI1/2 protein-protein interaction in human U2OS cells assessed as reduction in FANCM pull down at 100 uM incubated for 4 hrs by co-immunoprecipitation based Western blot analysis; format: cell-based
[3] = Proteolytic stability in Tris-HCl buffer at pH 7.8 assessed as alpha-chymotrypsin (unknown origin) mediated compound degradation at 20 uM incubated for 5 hrs by HPLC analysis; format: ADME; settings: human, pH 7.8, 5 h
Homo sapiens = species on record: Homo sapiens; experiment: Binding affinity to N-terminal 6His/Avi-tagged biotinylated RMI1/2 (unknown origin) extracted from Escherichia coli BL21 (DE3)cells by SPR analysis

Compound | IC50 [1] | also measured
CC[C@H](C)[C@H](NC(=O)[C@H](CO)NC(=O)[C@H](Cc1ccc(O)cc1)NC(=O)[C@H](Cc1ccc(O)cc1)NC(=O)[C@H](CCCCN)NC(=O)[C@H](CC(=O)O)NC(=O)[C@H](Cc1ccccc1)NC(=O)[C@H](CC(C)C)NC(=O)[C@H](C)NC(=O)[C@H](CO)NC(=O)[C@H](Cc1ccc(O)cc1)NC(C)=O)C(=O)N1CCC[C@H]1C(=O)N[C@H](CS)C(N)=O | 4500 nM | –
CC[C@H](C)[C@@H]1NC(=O)[C@H](CC(=O)O)NC(=O)CSC[C@@H](C(N)=O)NC(=O)[C@H](CO)NC(=O)[C@H](Cc2ccccc2)NC(=O)[C@H](Cc2ccc(O)cc2)NC(=O)[C@@H]2CCCN2C(=O)[C@H]([C@@H](C)CC)NC(=O)[C@H](Cc2ccc(O)cc2)NC(=O)[C@H](CO)NC(=O)[C@H](CC(C)C)NC(=O)[C@H](Cc2ccc(O)cc2)NC(=O)[C@H](CCCCN)NC1=O ({CH2CO}-DIKYLSYIPYFSC-NH2; thioether N-13) | – | Activity [1]: inactive
CC[C@H](C)[C@@H]1NC(=O)[C@H](Cc2ccccc2)NC(=O)[C@H](CO)NC(=O)[C@H]([C@@H](C)CC)NC(=O)[C@H](Cc2ccc(O)cc2)NC(=O)[C@H](CC(=O)O)NC(=O)[C@@H]2CCCN2C(=O)[C@H](CCCCN)NC(=O)[C@H](CC(C)C)NC(=O)CSC[C@@H](C(N)=O)NC(=O)[C@H](Cc2ccc(O)cc2)NC(=O)[C@H](Cc2ccc(O)cc2)NC(=O)[C@H](CO)NC1=O ({CH2CO}-LKPDYISFISYYC-NH2; thioether N-13) | – | Activity [1]: inactive
CC[C@H](C)[C@H](NC(=O)[C@H](CC(=O)O)NC(=O)[C@@H]1CSCC(=O)N[C@@H](Cc2ccc(O)cc2)C(=O)N[C@@H](Cc2ccc(O)cc2)C(=O)N[C@@H](CCCCN)C(=O)N2CCC[C@H]2C(=O)N[C@@H]([C@@H](C)O)C(=O)N1)C(=O)N[C@H](C(=O)N[C@@H](CC(C)C)C(=O)N[C@@H](Cc1ccccc1)C(=O)N[C@@H](Cc1c[nH]c2ccccc12)C(=O)N[C@@H](CO)C(N)=O)[C@@H](C)CC ({CH2CO}-YYKPTCDIILFWS-NH2; thioether N-6) | > 5000 nM | Activity (Homo sapiens): inactive
Ac-ASILFDKYYSIPC-NH2 | 700 nM | –
Ac-YSIAFDKYYSIPC-NH2 | 496 nM | –
Ac-YSILADKYYSIPC-NH2 | > 5000 nM | –
Ac-YSILFAKYYSIPC-NH2 | 440 nM | –
Ac-YSILFDKAYSIPC-NH2 | 338 nM | –
Ac-YSILFDKYASIPC-NH2 | > 5000 nM | –
Ac-YSILFDKYYSAPC-NH2 | 999 nM | –
Ac-YSILFDKYYSIPC-NH2 | > 5000 nM | –

Continued, in another order:

IC50 [1] | Compound | also measured
104 nM | CC[C@H](C)[C@@H]1NC(=O)[C@H](Cc2ccc(O)cc2)NC(=O)CSC[C@@H](C(=O)N[C@@H](CC(C)C)C(=O)N[C@@H](Cc2c[nH]c3ccccc23)C(=O)N[C@@H](CO)C(N)=O)NC(=O)[C@H](Cc2ccccc2)NC(=O)[C@H](CCCCN)NC(=O)[C@H]([C@@H](C)CC)NC(=O)[C@H](C(C)C)NC(=O)[C@H]([C@@H](C)O)NC(=O)[C@H](CC(=O)O)NC(=O)[C@H]([C@@H](C)O)NC(=O)[C@H](Cc2c[nH]c3ccccc23)NC(=O)[C@H](CCCNC(=N)N)NC(=O)[C@H](CC(N)=O)NC(=O)[C@H]([C@@H](C)O)NC1=O ({CH2CO}-YITNRWTDTVIKFCLWS-NH2; thioether N-14) | Kd [2]: 2 nM
78 nM | CC(C)C[C@@H]1NC(=O)[C@H](CCCNC(=N)N)NC(=O)[C@H](Cc2ccc(O)cc2)NC(=O)CSC[C@@H](C(N)=O)NC(=O)[C@@H]2CCCN2C(=O)[C@H](CC(C)C)NC(=O)[C@H](CCCCN)NC(=O)[C@H](Cc2ccc(O)cc2)NC(=O)[C@H]([C@@H](C)O)NC(=O)[C@H](CCC(N)=O)NC(=O)[C@H](Cc2ccccc2)NC(=O)[C@H](Cc2ccccc2)NC(=O)[C@H](Cc2c[nH]c3ccccc23)NC1=O ({CH2CO}-YRLWFFQTYKLPC-NH2; thioether N-13) | Kd [2]: 10 nM
54 nM | CC[C@H](C)[C@@H]1NC(=O)[C@H](CO)NC(=O)[C@H](Cc2ccc(O)cc2)NC(=O)CSC[C@@H](C(N)=O)NC(=O)[C@@H]2CCCN2C(=O)[C@H]([C@@H](C)CC)NC(=O)[C@H](CO)NC(=O)[C@H](Cc2ccc(O)cc2)NC(=O)[C@H](Cc2ccc(O)cc2)NC(=O)[C@H](CCCCN)NC(=O)[C@H](CC(=O)O)NC(=O)[C@H](Cc2ccccc2)NC(=O)[C@H](CC(C)C)NC1=O ({CH2CO}-YSILFDKYYSIPC-NH2; thioether N-13) | Kd [2]: 2.5 nM; Activity (U2OS): Active; Stability [3]: Stable
115 nM | Ac-YAILFDKYYSIPC-NH2 | –
95 nM | Ac-YSILFDAYYDSIPC-NH2 | –
69 nM | Ac-YSILFDKYYAIPC-NH2 | –
114 nM | Ac-YSILFDKYYSIAC-NH2 | –

From ChEMBL document CHEMBL6182932, “Potent Cyclic Peptide Inhibitors Disrupt the FANCM-RMI Interaction” (J Med Chem, 2025)
